Assay results from patent US9493455B2, “Azaindole derivatives as inhibitors of protein kinases” (ORIBASE PHARMA, priority 2012, dated 2016).

Legend:
[1] = system: HepG2; assay: In vitro cell proliferation assay (MTT); assay type: cell-based; conditions: Homo sapiens, HepG2, 72 h
Outline: (§1)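 Cells were seeded at 5×10^3 per well and exposed in duplicate to escalating compound concentrations from 10 nM to 3 μM for 72 hr. Proliferation was then measured by MTT reduction.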

[2] = system: HuCCT1; assay: In vitro cell proliferation assay (MTT); assay type: cell-based; conditions: Homo sapiens, HuCCT-1, 72 h
Outline: as §1

[3] = system: HuH6 Clone 5; assay: In vitro cell proliferation assay (MTT); assay type: cell-based; conditions: HUH-6-clone5, 72 h
Outline: as §1

[4] = system: HuH7; assay: In vitro cell proliferation assay (MTT); assay type: cell-based; conditions: Homo sapiens, Huh-7, 72 h
Outline: as §1

[5] = system: HUVEC; assay: In vitro cell proliferation assay (MTT); assay type: cell-based; conditions: Homo sapiens, 72 h
Protocol: Cancer cell lines (5×10^3 cells per well) or HUVEC (1×10^4 cells per well) or HRMEC (1×10^4 cells per well) were distributed in 96-well plates and incubating in duplicate with escalating concentrations (10 nM to 3 μM) of compounds for 72 hr. Cell proliferation was measured using MTT (3 [4,5-dimethylthiazol-2-yl]-2,5-diphenyltetrazolium bromide).

[6] = system: A549; assay: In vitro cell proliferation assay (MTT); assay type: cell-based; conditions: Homo sapiens, A549, 72 h
Outline: as §1

[7] = system: H1975; assay: In vitro cell proliferation assay (MTT); assay type: cell-based; conditions: Homo sapiens, NCI-H1975, 72 h
Outline: as §1

[8] = system: MDA-MB-231; assay: In vitro cell proliferation assay (MTT); assay type: cell-based; conditions: Homo sapiens, MDA-MB-231, 72 h
Outline: as §1

[9] = system: BxPC-3; assay: In vitro cell proliferation assay (MTT); assay type: cell-based; conditions: Homo sapiens, BXPC-3, 72 h
Outline: as §1

[10] = system: HT29; assay: In vitro cell proliferation assay (MTT); assay type: cell-based; conditions: Homo sapiens, HT-29, 72 h
Outline: as §1

[11] = system: PC-3; assay: In vitro cell proliferation assay (MTT); assay type: cell-based; conditions: Homo sapiens, PC-3, 72 h
Outline: as §1

[12] = target: T1, PDGFRA (PDGFR alpha) (Homo sapiens, UniProt P16234); assay: In vitro kinase assay (Z′-LYTE); assay type: biochemical; conditions: read-out: % of inhibition of the kinase compared to the control
T1 construct: purchased Invitrogen
Outline: (§2)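 Percent inhibition is derived from a coupled-enzyme fluorescence format in which unphosphorylated FRET peptide is preferentially proteolysed. Compounds are screened once at 100 nM (10 μM against ABL T315I) in 1% DMSO, with ATP at its apparent Km.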

[13] = target: T2, ABL T315I (Homo sapiens, UniProt P00519, T315I); assay: In vitro kinase assay (Z′-LYTE); assay type: biochemical; conditions: read-out: % of inhibition of the kinase compared to the control
T2 construct: purchased Invitrogen
Outline: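 Peptide/kinase mix combined with ATP (apparent Km) in 50 mM HEPES pH 7.5, 10 mM MgCl2, 1 mM EGTA, 0.01% BRIJ-35; compound present at 100 nM, except 10 μM for ABL T315I; DMSO 1% final. Protease development, then FRET emission ratio.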

[14] = target: T3, FGFR2 (Homo sapiens, UniProt P21802); assay: In vitro kinase assay (Z′-LYTE); assay type: biochemical; conditions: read-out: % of inhibition of the kinase compared to the control
T3 construct: purchased Invitrogen
T3 sequence (P21802 22-821): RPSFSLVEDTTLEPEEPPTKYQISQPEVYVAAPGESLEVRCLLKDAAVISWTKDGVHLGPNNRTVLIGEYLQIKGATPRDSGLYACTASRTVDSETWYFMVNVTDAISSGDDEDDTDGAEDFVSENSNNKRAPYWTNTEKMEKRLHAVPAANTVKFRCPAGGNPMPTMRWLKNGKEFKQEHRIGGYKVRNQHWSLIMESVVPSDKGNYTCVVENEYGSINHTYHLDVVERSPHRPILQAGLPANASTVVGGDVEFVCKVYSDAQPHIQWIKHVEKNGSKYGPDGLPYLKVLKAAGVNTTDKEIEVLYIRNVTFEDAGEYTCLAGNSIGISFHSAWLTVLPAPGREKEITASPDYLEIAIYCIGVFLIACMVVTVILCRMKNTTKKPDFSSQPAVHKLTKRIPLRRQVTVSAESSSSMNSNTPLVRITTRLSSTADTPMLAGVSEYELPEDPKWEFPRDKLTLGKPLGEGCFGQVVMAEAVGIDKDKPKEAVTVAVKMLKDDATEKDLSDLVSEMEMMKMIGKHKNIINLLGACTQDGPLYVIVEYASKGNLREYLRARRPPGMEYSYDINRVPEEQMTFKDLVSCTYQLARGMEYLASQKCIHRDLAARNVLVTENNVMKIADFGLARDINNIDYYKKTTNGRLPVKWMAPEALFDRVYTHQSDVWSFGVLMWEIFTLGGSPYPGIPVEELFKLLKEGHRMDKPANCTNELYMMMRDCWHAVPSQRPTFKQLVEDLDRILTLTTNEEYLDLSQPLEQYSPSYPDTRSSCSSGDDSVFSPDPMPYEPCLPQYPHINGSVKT
Outline: as §2

[15] = target: T4, PDGFRB (Homo sapiens, UniProt P09619); assay: In vitro kinase assay (Z′-LYTE); assay type: biochemical; conditions: read-out: % of inhibition of the kinase compared to the control
T4 construct: purchased Invitrogen
Outline: as §2

[16] = target: T5, FGFR1 (Homo sapiens, UniProt P11362); assay: In vitro kinase assay (Z′-LYTE); assay type: biochemical; conditions: read-out: % of inhibition of the kinase compared to the control
T5 construct: purchased Invitrogen
Outline: as §2

[17] = target: T6, ABL (Homo sapiens, UniProt P00519); assay: In vitro kinase assay (Z′-LYTE); assay type: biochemical; conditions: read-out: % of inhibition of the kinase compared to the control
T6 construct: purchased Invitrogen

[18] = target: T7, VEGFR1 (Homo sapiens, UniProt P17948); assay: In vitro kinase assay (Z′-LYTE); assay type: biochemical; conditions: read-out: % of inhibition of the kinase compared to the control
T7 construct: purchased Invitrogen
Outline: as §2

[19] = target: T8, BRAF (Homo sapiens, UniProt P15056); assay: In vitro kinase assay (Z′-LYTE); assay type: biochemical; conditions: compound 100 nM; ATP 100 μM; read-out: % of inhibition of the kinase compared to the control
T8 construct: purchased Invitrogen
Outline: as §2

[20] = target: T9, SRC (Homo sapiens, UniProt P12931); assay: In vitro kinase assay (Z′-LYTE); assay type: biochemical; conditions: read-out: % of inhibition of the kinase compared to the control
T9 construct: purchased Invitrogen
T9 sequence (P12931 whole entry): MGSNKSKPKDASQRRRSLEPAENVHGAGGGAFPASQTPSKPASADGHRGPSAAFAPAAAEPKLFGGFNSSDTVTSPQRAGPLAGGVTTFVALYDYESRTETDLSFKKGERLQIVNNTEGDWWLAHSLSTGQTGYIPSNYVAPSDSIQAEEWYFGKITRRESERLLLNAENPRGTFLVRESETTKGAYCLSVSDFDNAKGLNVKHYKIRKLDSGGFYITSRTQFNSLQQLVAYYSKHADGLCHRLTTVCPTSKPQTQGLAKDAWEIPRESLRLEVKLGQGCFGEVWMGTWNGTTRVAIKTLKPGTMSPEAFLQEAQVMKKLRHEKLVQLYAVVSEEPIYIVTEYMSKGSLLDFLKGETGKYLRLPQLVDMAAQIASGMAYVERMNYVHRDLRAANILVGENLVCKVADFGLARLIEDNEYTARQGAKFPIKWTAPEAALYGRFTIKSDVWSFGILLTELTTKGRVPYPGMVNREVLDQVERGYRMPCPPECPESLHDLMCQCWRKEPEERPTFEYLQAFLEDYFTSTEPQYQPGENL
Outline: as §2

[21] = target: T10, EGFR (ErbB1) T790M L858R (Homo sapiens, UniProt P00533, L858R/T790M); assay: In vitro kinase assay (Z′-LYTE); assay type: biochemical; conditions: read-out: % of inhibition of the kinase compared to the control
T10 construct: purchased Invitrogen
T10 sequence (P00533 25-1210 T790M/L858R): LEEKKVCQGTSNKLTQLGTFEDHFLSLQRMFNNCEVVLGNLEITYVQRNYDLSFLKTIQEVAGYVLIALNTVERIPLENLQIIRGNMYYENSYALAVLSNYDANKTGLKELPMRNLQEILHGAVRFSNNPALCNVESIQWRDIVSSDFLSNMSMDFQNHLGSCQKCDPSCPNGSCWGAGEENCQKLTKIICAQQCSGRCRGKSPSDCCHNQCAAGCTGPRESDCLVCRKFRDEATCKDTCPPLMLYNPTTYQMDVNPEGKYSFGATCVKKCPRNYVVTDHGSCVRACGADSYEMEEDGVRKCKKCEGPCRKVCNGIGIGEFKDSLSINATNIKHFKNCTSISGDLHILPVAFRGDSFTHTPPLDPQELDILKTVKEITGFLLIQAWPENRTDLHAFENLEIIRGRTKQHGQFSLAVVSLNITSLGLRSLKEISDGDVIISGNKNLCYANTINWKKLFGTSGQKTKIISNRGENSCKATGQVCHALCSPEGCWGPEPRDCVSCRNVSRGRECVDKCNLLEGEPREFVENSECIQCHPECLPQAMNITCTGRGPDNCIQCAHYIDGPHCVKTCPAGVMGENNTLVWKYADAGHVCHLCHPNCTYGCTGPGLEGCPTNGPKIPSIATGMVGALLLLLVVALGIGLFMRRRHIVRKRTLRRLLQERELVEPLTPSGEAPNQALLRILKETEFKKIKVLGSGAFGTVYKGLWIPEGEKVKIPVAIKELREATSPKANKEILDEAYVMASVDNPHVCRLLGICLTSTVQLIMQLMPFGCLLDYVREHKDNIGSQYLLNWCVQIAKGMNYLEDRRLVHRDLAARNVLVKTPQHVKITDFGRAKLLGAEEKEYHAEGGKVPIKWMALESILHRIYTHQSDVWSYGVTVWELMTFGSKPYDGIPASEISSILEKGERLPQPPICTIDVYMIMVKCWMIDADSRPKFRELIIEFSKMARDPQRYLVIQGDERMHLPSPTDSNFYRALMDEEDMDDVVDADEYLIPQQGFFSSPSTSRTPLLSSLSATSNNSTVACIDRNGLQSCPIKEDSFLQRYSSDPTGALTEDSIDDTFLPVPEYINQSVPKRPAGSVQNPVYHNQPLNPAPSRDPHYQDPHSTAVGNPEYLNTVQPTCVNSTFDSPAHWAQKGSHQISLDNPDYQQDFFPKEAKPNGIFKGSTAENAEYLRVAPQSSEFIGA
Outline: as §2

[22] = target: T11, KDR (VEGFR2) (Homo sapiens, UniProt P35968); assay: In vitro kinase assay (Z′-LYTE); assay type: biochemical; conditions: read-out: % of inhibition of the kinase compared to the control
T11 construct: purchased Invitrogen
T11 sequence (P35968 20-1356): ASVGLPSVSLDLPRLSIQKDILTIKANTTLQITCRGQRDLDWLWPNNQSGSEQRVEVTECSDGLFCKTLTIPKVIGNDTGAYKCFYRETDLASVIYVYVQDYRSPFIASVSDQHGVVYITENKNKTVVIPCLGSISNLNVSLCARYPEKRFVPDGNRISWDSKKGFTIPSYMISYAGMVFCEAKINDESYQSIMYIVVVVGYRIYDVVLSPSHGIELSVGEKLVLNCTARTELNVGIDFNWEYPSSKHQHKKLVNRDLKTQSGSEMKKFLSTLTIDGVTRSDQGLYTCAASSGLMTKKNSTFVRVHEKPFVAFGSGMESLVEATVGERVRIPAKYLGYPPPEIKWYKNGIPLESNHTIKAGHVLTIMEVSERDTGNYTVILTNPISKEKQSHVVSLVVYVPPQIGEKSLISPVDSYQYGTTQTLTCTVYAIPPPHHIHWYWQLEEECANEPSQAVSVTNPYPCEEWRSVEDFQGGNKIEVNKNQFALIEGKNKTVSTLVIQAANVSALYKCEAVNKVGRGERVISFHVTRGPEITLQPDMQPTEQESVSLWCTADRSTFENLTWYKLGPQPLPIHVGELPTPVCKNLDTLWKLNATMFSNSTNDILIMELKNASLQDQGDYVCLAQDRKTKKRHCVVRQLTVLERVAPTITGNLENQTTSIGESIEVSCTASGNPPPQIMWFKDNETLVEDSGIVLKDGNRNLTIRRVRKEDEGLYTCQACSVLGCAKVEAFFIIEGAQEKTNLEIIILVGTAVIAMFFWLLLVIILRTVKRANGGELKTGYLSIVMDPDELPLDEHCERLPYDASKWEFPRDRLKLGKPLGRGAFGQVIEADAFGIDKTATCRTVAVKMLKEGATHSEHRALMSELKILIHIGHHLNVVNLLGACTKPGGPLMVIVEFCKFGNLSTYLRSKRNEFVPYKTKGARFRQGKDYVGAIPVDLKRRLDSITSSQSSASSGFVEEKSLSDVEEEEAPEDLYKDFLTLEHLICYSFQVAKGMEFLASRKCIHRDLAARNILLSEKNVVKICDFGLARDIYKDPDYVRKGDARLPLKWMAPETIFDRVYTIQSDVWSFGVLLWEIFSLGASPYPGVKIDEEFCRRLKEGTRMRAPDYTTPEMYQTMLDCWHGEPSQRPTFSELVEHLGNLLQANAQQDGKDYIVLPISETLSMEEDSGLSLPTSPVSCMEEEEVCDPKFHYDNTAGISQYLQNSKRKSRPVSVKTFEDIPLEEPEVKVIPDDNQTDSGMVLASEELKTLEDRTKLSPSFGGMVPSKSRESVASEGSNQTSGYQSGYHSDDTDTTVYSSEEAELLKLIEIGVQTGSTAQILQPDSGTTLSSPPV
Outline: as §2

[23] = target: T12, EGFR (ErbB1) (Homo sapiens, UniProt P00533); assay: In vitro kinase assay (Z′-LYTE); assay type: biochemical; conditions: read-out: % of inhibition of the kinase compared to the control
T12 construct: purchased Invitrogen
T12 sequence (P00533 25-1210): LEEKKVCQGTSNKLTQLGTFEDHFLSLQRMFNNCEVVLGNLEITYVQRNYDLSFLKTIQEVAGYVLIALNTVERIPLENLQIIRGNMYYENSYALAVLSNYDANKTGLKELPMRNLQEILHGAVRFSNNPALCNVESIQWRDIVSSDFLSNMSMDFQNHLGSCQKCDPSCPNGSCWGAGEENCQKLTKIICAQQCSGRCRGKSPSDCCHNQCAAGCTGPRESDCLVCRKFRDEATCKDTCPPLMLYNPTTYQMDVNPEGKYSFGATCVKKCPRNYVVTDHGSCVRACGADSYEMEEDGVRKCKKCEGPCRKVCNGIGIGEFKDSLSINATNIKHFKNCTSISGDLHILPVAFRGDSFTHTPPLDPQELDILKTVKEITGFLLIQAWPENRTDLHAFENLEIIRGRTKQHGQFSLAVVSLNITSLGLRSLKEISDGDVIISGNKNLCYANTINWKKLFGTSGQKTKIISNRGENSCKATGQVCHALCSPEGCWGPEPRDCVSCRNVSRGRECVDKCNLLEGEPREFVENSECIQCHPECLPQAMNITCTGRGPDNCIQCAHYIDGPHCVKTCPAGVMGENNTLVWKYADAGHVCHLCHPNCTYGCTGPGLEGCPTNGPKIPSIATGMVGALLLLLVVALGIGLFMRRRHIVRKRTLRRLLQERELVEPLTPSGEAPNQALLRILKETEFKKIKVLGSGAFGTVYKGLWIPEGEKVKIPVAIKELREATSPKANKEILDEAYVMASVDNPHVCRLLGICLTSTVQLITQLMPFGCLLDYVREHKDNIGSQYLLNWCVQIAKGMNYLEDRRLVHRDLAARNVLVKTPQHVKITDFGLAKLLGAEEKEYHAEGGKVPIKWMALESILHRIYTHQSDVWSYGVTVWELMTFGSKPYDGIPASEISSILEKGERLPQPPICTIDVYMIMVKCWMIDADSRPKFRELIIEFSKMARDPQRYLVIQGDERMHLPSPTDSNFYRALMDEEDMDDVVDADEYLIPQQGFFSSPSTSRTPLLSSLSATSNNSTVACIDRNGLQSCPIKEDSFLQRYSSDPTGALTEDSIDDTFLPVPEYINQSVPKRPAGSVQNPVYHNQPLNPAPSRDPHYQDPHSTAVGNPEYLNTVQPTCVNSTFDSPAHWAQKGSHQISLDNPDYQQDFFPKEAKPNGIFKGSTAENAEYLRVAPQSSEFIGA
Outline: as §2

[24] = system: HeLa; assay: In vitro cell proliferation assay (MTT); assay type: cell-based; conditions: Homo sapiens, 72 h
Outline: as §1

Structure (SMILES) | EC50 [1] [µM] | EC50 [5] [µM] | EC50 [6] [µM] | EC50 [7] [µM] | EC50 [8] [µM] | EC50 [9] [µM] | EC50 [10] [µM] | EC50 [11] [µM] | inhibition at 0.1 µM [12] [%] | inhibition at 10 µM [13] [%] | inhibition at 0.1 µM [14] [%] | inhibition at 0.1 µM [15] [%] | inhibition at 0.1 µM [16] [%] | inhibition at 10 µM [17] [%] | inhibition at 0.1 µM [18] [%] | inhibition at 0.1 µM [19] [%] | inhibition at 0.1 µM [20] [%] | inhibition at 0.1 µM [21] [%] | inhibition at 0.1 µM [22] [%] | inhibition at 0.1 µM [23] [%] | other results
CNC(=O)c1cc(Oc2ccc(NC(=O)Nc3ccc(Cl)c(C(F)(F)F)c3)cc2)ccn1 [Sorafenib, reference compound] | ≥ 1 | 0.1 to 1 | – | – | – | – | – | – | – | – | – | – | – | – | – | – | – | – | – | – | EC50 [2]: ≥ 1 µM; EC50 [3]: ≥ 1 µM; EC50 [4]: ≥ 1 µM
COC(=O)c1cc2cc(NCc3cc(NC(=O)c4ccc(CN5CCC(O)CC5)c(C(F)(F)F)c4)ccc3C)cnc2[nH]1 [OR0636] | 0.1 to 1 | 0.1 to 1 | 0.1 to 1 | ≥ 1 | 0.1 to 1 | 0.1 to 1 | 0.1 to 1 | ≥ 1 | ≥ 50 | < 50 | < 50 | < 50 | < 50 | ≥ 50 | < 50 | < 50 | ≥ 50 | < 50 | < 50 | ≥ 50 | EC50 [2]: ≥ 1 µM
COC(=O)c1cc2cc(NCc3cc(NC(=O)c4cccc(C(F)(F)F)c4)ccc3C)cnc2[nH]1 [OR0606] | ≤ 0.1 | ≤ 0.1 | 0.1 to 1 | 0.1 to 1 | ≤ 0.1 | 0.1 to 1 | 0.1 to 1 | ≥ 1 | ≥ 50 | ≥ 50 | < 50 | < 50 | < 50 | ≥ 50 | < 50 | < 50 | ≥ 50 | < 50 | < 50 | ≥ 50 | EC50 [24]: ≥ 1 µM
COC(=O)c1cc2cc(NCc3cc(NC(=O)c4cccc(C(C)C)c4)ccc3C)cnc2[nH]1 [OR0610] | 0.1 to 1 | ≤ 0.1 | 0.1 to 1 | 0.1 to 1 | ≤ 0.1 | 0.1 to 1 | 0.1 to 1 | ≥ 1 | ≥ 50 | ≥ 50 | < 50 | < 50 | < 50 | ≥ 50 | < 50 | < 50 | ≥ 50 | < 50 | < 50 | ≥ 50 | –
COC(=O)c1cc2cc(NCc3cc(NC(=O)c4cccc(OC(F)(F)F)c4)ccc3C)cnc2[nH]1 [OR0611] | ≤ 0.1 | 0.1 to 1 | 0.1 to 1 | 0.1 to 1 | ≤ 0.1 | ≤ 0.1 | 0.1 to 1 | ≥ 1 | ≥ 50 | ≥ 50 | < 50 | < 50 | < 50 | ≥ 50 | < 50 | < 50 | ≥ 50 | < 50 | < 50 | < 50 | EC50 [24]: ≥ 1 µM
COC(=O)c1cc2cc(NC(=O)c3cc(NC(=O)c4cncc(C(F)(F)F)c4)ccc3C)cnc2[nH]1 [OR0745] | 0.1 to 1 | 0.1 to 1 | 0.1 to 1 | ≥ 1 | 0.1 to 1 | – | 0.1 to 1 | – | ≥ 50 | – | < 50 | – | – | – | – | ≥ 50 | ≥ 50 | < 50 | < 50 | < 50 | EC50 [2]: ≥ 1 µM; EC50 [3]: ≥ 1 µM; EC50 [24]: ≥ 1 µM; EC50 [4]: 0.1 to 1 µM
